Measured values taken from EP4268823A1, “COMPOUND FOR TREATING NEUROINFLAMMATION” (Universitätsklinikum Hamburg-Eppendorf, priority 2022, dated 2023).

Target: T1, G9a (Homo sapiens, UniProt Q96KQ7)
T1 construct: H3K9me2 immunostaining and quantification in response to ferroptosis induction with erastin in hiPSC neurons; endogenous in cells; host or cells: neurons differentiated from human iPSCs (ZIPi013-B)
T1 sequence (Q96KQ7 1-1210): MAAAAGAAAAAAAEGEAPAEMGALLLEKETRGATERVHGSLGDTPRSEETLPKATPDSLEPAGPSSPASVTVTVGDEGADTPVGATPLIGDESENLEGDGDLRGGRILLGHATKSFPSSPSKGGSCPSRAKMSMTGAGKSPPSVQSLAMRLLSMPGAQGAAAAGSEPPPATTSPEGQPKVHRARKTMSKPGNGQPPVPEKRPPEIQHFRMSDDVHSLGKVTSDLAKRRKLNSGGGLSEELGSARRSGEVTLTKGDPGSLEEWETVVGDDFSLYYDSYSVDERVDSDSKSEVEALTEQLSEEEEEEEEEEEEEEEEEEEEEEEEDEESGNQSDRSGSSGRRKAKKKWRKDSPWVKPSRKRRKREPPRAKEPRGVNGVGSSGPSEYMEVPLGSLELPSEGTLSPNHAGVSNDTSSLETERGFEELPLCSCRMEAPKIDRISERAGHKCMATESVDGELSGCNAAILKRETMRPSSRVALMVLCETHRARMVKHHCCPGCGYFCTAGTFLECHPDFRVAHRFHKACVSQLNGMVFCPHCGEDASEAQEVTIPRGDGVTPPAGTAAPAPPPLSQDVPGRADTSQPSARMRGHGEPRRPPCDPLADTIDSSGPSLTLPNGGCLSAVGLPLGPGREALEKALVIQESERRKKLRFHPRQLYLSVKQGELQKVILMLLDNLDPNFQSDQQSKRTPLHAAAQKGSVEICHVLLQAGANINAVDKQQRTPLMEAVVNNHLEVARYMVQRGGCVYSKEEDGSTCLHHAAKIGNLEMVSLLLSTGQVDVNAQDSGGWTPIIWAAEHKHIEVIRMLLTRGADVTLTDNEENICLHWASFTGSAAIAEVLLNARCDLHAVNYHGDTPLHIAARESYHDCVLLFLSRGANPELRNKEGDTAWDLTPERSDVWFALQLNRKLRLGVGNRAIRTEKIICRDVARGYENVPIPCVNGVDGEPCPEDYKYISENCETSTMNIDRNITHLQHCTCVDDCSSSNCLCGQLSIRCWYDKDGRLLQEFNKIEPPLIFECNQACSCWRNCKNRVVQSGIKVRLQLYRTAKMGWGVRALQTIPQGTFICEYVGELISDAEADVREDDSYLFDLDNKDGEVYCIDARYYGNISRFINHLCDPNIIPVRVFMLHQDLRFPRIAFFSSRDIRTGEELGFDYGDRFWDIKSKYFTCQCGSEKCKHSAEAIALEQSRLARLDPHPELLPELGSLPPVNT
Experiment: H3K9me2 immunostaining in hiPSC neurons after erastin
Format: cell-based
Conditions: erastin + UNC0642
Excerpt: Human iPSCs (ZIPi013-B) (83) were maintained under feeder-free conditions on Matrigel (Corning)-coated plates in mTeSR1 medium (Stem Cell Technologies, cat. no. 85850). For neuronal induction, iPSCs were dissociated with Accutase and seeded at a density of 3 × 10^6 cells per well on AggreWell800 plates (10,000 cells per embryoid body (EB), Stem Cell Technologies) in SMADi Neural Induction Medium (SMADi NIM, Stem Cell Technologies, cat. no. 08582) supplemented with […] (Stem Cell Technologies, cat. no. 72302). On day 6, EBs were harvested and cultivated on Matrigel-coated plates in SMADi NIM for 12 days. Newly formed neural rosettes were manually picked and cultured for another 4 days. In order to release neural precursor cells (NPCs), neural rosettes were dissociated with Accutase and were maintained for several passages at high density in Neural Progenitor Medium (Stem Cell Technologies, cat. no. 05833) on Matrigel-coated plates. HiPSC-derived NPCs were differentiated into neurons as previously described (84, 85) with some modifications. Briefly, NPCs were seeded at a density of 1 × 10^5 cells per cm^2 in Neural Progenitor Medium onto Matrigel-coated plates. […]
Immunocytochemistry was performed as described previously (15). […] Immunostainings were analyzed with a Zeiss LSM 700 confocal microscope.

Structure (SMILES): COc1cc2c(NC3CCN(C(C)C)CC3)nc(N3CCC(F)(F)CC3)nc2cc1OCCCN1CCCC1 [UNC0642, 2-(4,4-difluoropiperidin-1-yl)-6-methoxy-N-[1-(propan-2-yl)piperidin-4-yl]-7-[3-(pyrrolidin-1-yl)propoxy]quinazolin-4-amine]
- increase of H3K9me2 levels in response to erastin-induced ferroptosis: rescued
